Like-named read-outs stand apart in the source and are kept apart here.
Assays:
Escherichia coli = conditions: pH 3; for Antimicrobial efficacy of treated fabric, E. coli: Orlon treated with 1 mMol/L compound, 10^5~10^6 CFU/mL; for Reduction percentage of E. coli: Orlon treated with 1 mMol/L dye
Method: (§1) The dyeing of acrylic fabrics follows a traditional exhaustion dyeing procedure (Munn, The dyeing of synthetic-polymer and acetate fibres, England: Dyers Company Publications Trust (1979)). Dye solutions were prepared with the QAS-dyes of the present invention, sodium sulfate (2 g/L), and Triton X-100 (0.05%). The pH of the dyeing bath was adjusted to 3 by buffer solutions containing sulfuric acid, sodium acetate, and acetic acid. The bath ratio was kept at 1:50. The Orlon fabrics were immersed into the dyeing bath at initial dyeing temperatures for a certain period of time, and then fixed at 100° C. for another period of time to elevate the interactions between the fabrics and the QAS-dyes.
(§2) The antimicrobial activities of the treated Orlon fabrics were evaluated against Escherichia coli (E. coli, Gram-negative) and Staphylococcus aureus (S. aureus, Gram-positive) according to AATCC test method 100-1999. In this method, disposable petri dishes containing fabric swatches weighing about 1 g were challenged with 1.0±0.1 mL of bacteria inoculum. After a certain period of contact time, the challenged fabric swatches were transferred to 250 mL containers with 100 mL of sterilized water, and the resultant supernatant was diluted 10^1, 10^2, 10^3, and 10^4 times. Then, 100 μL of each dilution was placed onto nutrient agar and incubated at 37° C. for 18 hours. The same procedure was applied to an untreated Orlon fabric swatch as a control. Finally, viable bacteria colonies on the agar plate were counted, and the amount of bacterial reduction was calculated using Eq. (2): Reduction percentage(%)=(A-B)/A×100%, (2) where A represents the number of bacterial colonies in the control, and B represents the number of bacterial colonies in the treated Orlon fabrics.
(§3) The surface resistivity of the treated fabrics was measured by a portable surface resistivity/resistance meter purchase from Monroe Electronics, Inc (Model 272A). The visual color yields of the dyed fabrics were measured by GretagMacbeth™ Color-Eye® 7000A spectrophotometer. The visual color yields of the fabrics were expressed by K/S values, which were derived from the reflectance measurement. The treated fabric was washed in a Launder-Ometer® according to AATCC Test Method 61-2001 to evaluate the wash durability of the treated fabrics. In this method, one cycle of a Launder-Ometer wash is equivalent to five machine washes using a home laundry machine.

Staphylococcus aureus = conditions: Orlon treated with 1 mMol/L compound, pH 3, 10^5~10^6 CFU/mL, contact time 6 hrs
Method: as §1, §2, §3

[1] = for Relative hydrolytic stability among mono-QAS substituted dyes: acidic conditions, 100° C.
Method: Hydrolytic stability analysis: The dyes were dissolved in aqueous solutions at a concentration of 0.4-1 mMol/L, and the solutions were adjusted to various pH values by using sulfuric acid, acetic acid, sodium acetate, sodium bicarbonate, and/or sodium carbonate. The solutions were heated to the required temperatures. At different time intervals, solution samples were taken and measured by a HITACHI U-2000 spectrophotometer to obtain the UV-vis adsorption spectra. The results were compared with the spectra of original dye solutions to determine the stability of the dyes.
After hydrolysis, the precipitates formed in the dye solutions were filtered and thoroughly washed with deionized water. The resultant precipitates were recrystallized using acetone for NMR analysis. NMR spectra were recorded on a Varian Inova 400 spectrometer. The residual filtrate was extracted by chloroform, and the aqueous part was dried under vacuum at room temperature and analyzed by NMR.

[2] = DSC, 10° C./min, nitrogen
Method: Thermal stability analysis: Thermal analyses of the QAS-dyes shown in FIG. 2B were performed using a differential scanning calorimeter (DSC) (Shimadzu DSC-50) and a thermal gravimetric analyzer (TGA) (Shimadzu TGA-50). The dye samples were heated at 10° C./min. and nitrogen gas was chosen as the atmosphere.

Compound: CCCCCCCCCCCC[N+](C)(C)CC(=O)Nc1ccc(NC(=O)C[N+](C)(C)CCCCCCCCCCCC)c2c1C(=O)c1ccccc1C2=O.[Cl-].[Cl-] [bi-12]
- Antimicrobial efficacy of treated fabric, E. coli (Escherichia coli; 0 washes, contact time 6 hrs): 99.9%
- Antimicrobial efficacy of treated fabric, E. coli (Escherichia coli; 5 washes, contact time 6 hrs): 99.3%
- Antimicrobial efficacy of treated fabric, E. coli (Escherichia coli; 10 washes, contact time 6 hrs): 60.0%
- Antimicrobial efficacy of treated fabric, E. coli (Escherichia coli; 20 washes, contact time 6 hrs): 0%
- Reduction percentage of E. coli (Escherichia coli; E. coli 10^5~10^6 CFU/mL, contact time 3 hrs): 93.3%
- Reduction percentage of E. coli (Escherichia coli; E. coli 10^5~10^6 CFU/mL, contact time 6 hrs): 99.9%
- Reduction percentage of E. coli (Escherichia coli; E. coli 10^5~10^6 CFU/mL, contact time 9 hrs): 93.3%
- Reduction percentage of E. coli (Escherichia coli; E. coli 10^5~10^6 CFU/mL, contact time 12 hrs): 66.7%
- Reduction percentage of E. coli (Escherichia coli; E. coli 10^6~10^7 CFU/mL, contact time 3 hrs): 92.5%
- Reduction percentage of E. coli (Escherichia coli; E. coli 10^6~10^7 CFU/mL, contact time 6 hrs): 95.8%
- Reduction percentage of E. coli (Escherichia coli; E. coli 10^6~10^7 CFU/mL, contact time 9 hrs): 83.3%
- Reduction percentage of E. coli (Escherichia coli; E. coli 10^6~10^7 CFU/mL, contact time 12 hrs): 50%
- Reduction percentage of E. coli (Escherichia coli; E. coli 10^7~10^8 CFU/mL, contact time 3 hrs): 86.7%
- Reduction percentage of E. coli (Escherichia coli; E. coli 10^7~10^8 CFU/mL, contact time 6 hrs): 0%
- Reduction percentage of E. coli (Escherichia coli; E. coli 10^7~10^8 CFU/mL, contact time 9 hrs): 0%
- Reduction percentage of E. coli (Escherichia coli; E. coli 10^7~10^8 CFU/mL, contact time 12 hrs): 0%
- Antimicrobial efficacy of treated fabric, S. aureus (Staphylococcus aureus; 0 washes): 99.9%
- Antimicrobial efficacy of treated fabric, S. aureus (Staphylococcus aureus; 5 washes): 81.8%
- Antimicrobial efficacy of treated fabric, S. aureus (Staphylococcus aureus; 10 washes): 45.5%
- Antimicrobial efficacy of treated fabric, S. aureus (Staphylococcus aureus; 20 washes): 0%

Compound: CCCCCCCCCCCC[N+](C)(C)CC(=O)Nc1cccc2c1C(=O)c1ccccc1C2=O.[Cl-] [m-12]
- Relative hydrolytic stability among mono-QAS substituted dyes [1]: lowest stability
- Temperature up to which no obvious changes are observed (dyes stable below) [2]: up to 190 °C
- Antimicrobial efficacy of treated fabric, E. coli (Escherichia coli; 0 washes, contact time 6 hrs): 99.9%
- Antimicrobial efficacy of treated fabric, E. coli (Escherichia coli; 5 washes, contact time 6 hrs): 81.3%
- Antimicrobial efficacy of treated fabric, E. coli (Escherichia coli; 10 washes, contact time 6 hrs): 0%
- Antimicrobial efficacy of treated fabric, E. coli (Escherichia coli; 20 washes, contact time 6 hrs): 0%
- Antimicrobial efficacy of treated fabric, S. aureus (Staphylococcus aureus; 0 washes): 99.9%
- Antimicrobial efficacy of treated fabric, S. aureus (Staphylococcus aureus; 5 washes): 75.0%
- Antimicrobial efficacy of treated fabric, S. aureus (Staphylococcus aureus; 10 washes): 0%
- Antimicrobial efficacy of treated fabric, S. aureus (Staphylococcus aureus; 20 washes): 0%

Compound: CCCCCCCC[N+](C)(C)CC(=O)Nc1cccc2c1C(=O)c1ccccc1C2=O.[Cl-] [m-8]
- Relative hydrolytic stability among mono-QAS substituted dyes [1]: lower stability
- Temperature up to which no obvious changes are observed (dyes stable below) [2]: up to 190 °C
- Antimicrobial efficacy of treated fabric, E. coli (Escherichia coli; 0 washes, contact time 6 hrs): 98.6%
- Antimicrobial efficacy of treated fabric, E. coli (Escherichia coli; 5 washes, contact time 6 hrs): 44.0%
- Antimicrobial efficacy of treated fabric, E. coli (Escherichia coli; 10 washes, contact time 6 hrs): 0%
- Antimicrobial efficacy of treated fabric, E. coli (Escherichia coli; 20 washes, contact time 6 hrs): 0%
- Antimicrobial efficacy of treated fabric, S. aureus (Staphylococcus aureus; 0 washes): 92.4%
- Antimicrobial efficacy of treated fabric, S. aureus (Staphylococcus aureus; 5 washes): 37.5%
- Antimicrobial efficacy of treated fabric, S. aureus (Staphylococcus aureus; 10 washes): 0%
- Antimicrobial efficacy of treated fabric, S. aureus (Staphylococcus aureus; 20 washes): 0%

Compound: CCCC[N+](C)(C)CC(=O)Nc1ccc(NC(=O)C[N+](C)(C)CCCC)c2c1C(=O)c1ccccc1C2=O.[Cl-].[Cl-] [bi-4]
- Antimicrobial efficacy of treated fabric, E. coli (Escherichia coli; 0 washes, contact time 6 hrs): 97.1%
- Antimicrobial efficacy of treated fabric, E. coli (Escherichia coli; 5 washes, contact time 6 hrs): 37.5%
- Antimicrobial efficacy of treated fabric, E. coli (Escherichia coli; 10 washes, contact time 6 hrs): 0%
- Antimicrobial efficacy of treated fabric, E. coli (Escherichia coli; 20 washes, contact time 6 hrs): 0%
- Antimicrobial efficacy of treated fabric, S. aureus (Staphylococcus aureus; 0 washes): 87.5%
- Antimicrobial efficacy of treated fabric, S. aureus (Staphylococcus aureus; 5 washes): 36.4%
- Antimicrobial efficacy of treated fabric, S. aureus (Staphylococcus aureus; 10 washes): 0%
- Antimicrobial efficacy of treated fabric, S. aureus (Staphylococcus aureus; 20 washes): 0%

Compound: CCCC[N+](C)(C)CC(=O)Nc1cccc2c1C(=O)c1ccccc1C2=O.[Cl-] [m-4]
- Time the dye solution was stable (almost unchanged visible spectra) ([1]; 0.4 mMol/L, pH 5, 100° C.): about six
- Temperature up to which no obvious changes are observed (dyes stable below) [2]: up to 190 °C
- Antimicrobial efficacy of treated fabric, E. coli (Escherichia coli; 0 washes, contact time 6 hrs): 95.7%
- Antimicrobial efficacy of treated fabric, E. coli (Escherichia coli; 5 washes, contact time 6 hrs): 44.0%
- Antimicrobial efficacy of treated fabric, E. coli (Escherichia coli; 10 washes, contact time 6 hrs): 0%
- Antimicrobial efficacy of treated fabric, E. coli (Escherichia coli; 20 washes, contact time 6 hrs): 0%
- Antimicrobial efficacy of treated fabric, S. aureus (Staphylococcus aureus; 0 washes): 86.4%
- Antimicrobial efficacy of treated fabric, S. aureus (Staphylococcus aureus; 5 washes): 50.0%
- Antimicrobial efficacy of treated fabric, S. aureus (Staphylococcus aureus; 10 washes): 0%
- Antimicrobial efficacy of treated fabric, S. aureus (Staphylococcus aureus; 20 washes): 0%

Compound: CCCCCCCC[N+](C)(C)CC(=O)Nc1ccc(NC(=O)C[N+](C)(C)CCCCCCCC)c2c1C(=O)c1ccccc1C2=O.[Cl-].[Cl-] [bi-8]
- Antimicrobial efficacy of treated fabric, E. coli (Escherichia coli; 0 washes, contact time 6 hrs): 98.6%
- Antimicrobial efficacy of treated fabric, E. coli (Escherichia coli; 5 washes, contact time 6 hrs): 50.0%
- Antimicrobial efficacy of treated fabric, E. coli (Escherichia coli; 10 washes, contact time 6 hrs): 46.7%
- Antimicrobial efficacy of treated fabric, E. coli (Escherichia coli; 20 washes, contact time 6 hrs): 0%
- Antimicrobial efficacy of treated fabric, S. aureus (Staphylococcus aureus; 0 washes): 93.9%
- Antimicrobial efficacy of treated fabric, S. aureus (Staphylococcus aureus; 5 washes): 50.0%
- Antimicrobial efficacy of treated fabric, S. aureus (Staphylococcus aureus; 10 washes): 37.5%
- Antimicrobial efficacy of treated fabric, S. aureus (Staphylococcus aureus; 20 washes): 0%
